Measurements from patent US4918077A, “3-phenyl-5,6-dihydrobenz(c)acridine-7-carboxylic acids and related compounds as cancer chemotherapeutic agents” (E. I. Du Pont de Nemours & Co., Inc., priority 1989, dated 1990).
Values after ≈ are worked out from the molar mass of the structure shown.

Tests used:
[1] = system: human melanoma RPMI-7272 cells; assay: In Vitro RPMI-7272 Human Melanoma Test; assay type: cell-based; conditions: 72 hours after addition of compound, read-out: ID50 (dose required to inhibit the number of cell doublings by 50%)
Experimental: The compounds of this invention were also tested for their ability to inhibit the growth of human melanoma RPMI-7272 cells in vitro.
Cells are seeded at 3×10^5 per 35 mm plate to initiate growth inhibition studies. Cultures to receive growth medium only (control cultures) are set up in quadruplicate; cultures to receive varying concentrations of compounds are set up at one dish per dose of compound. Twenty-four hours post-seeding, duplicate control cell cultures are trypsinized and cells are counted using a Coulter Counter (day 1 control counts). At this time, varying concentrations of test compounds, from 100 to 0.00001 μg/mL are added to cultures and growth medium only is added to control cultures. Seventy-two hours after the addition of compound, cells are trypsinized and counted. The numbers of cell population doublings (day 4) in the presence or absence of compound are calculated.
Compounds are dissolved at 10-25 mg/mL in dimethylsulfoxide. Dilutions to 1 mg/mL in complete growth medium are made, followed by stock preparations of 100 and 30 μg/mL in complete growth medium. Serial ten-fold dilutions in complete medium are formulated from the 100 and 30 μg/mL stocks, respectively, and added to cultures.

L1210 leukemia = assay: L1210 Murine Leukemia Test; assay type: in vivo, mouse; conditions: intraperitoneal, once daily for nine days
Experimental: (§1) The efficacy of the compounds of this invention against transplanted mouse tumors was evaluated in test systems which are used by the National Cancer Institute for the detection and assessment of anticancer activity. […] J. Cancer, 17, 129-142, (1981); Venditti, J. M., Seminars in Oncology, 8(4)(1981); Goldin, A. and J. M. Venditti in Recent Results in Cancer Research, 70, S. K. Carter and Y. Sakurai, Eds., Springer-Verlag, Berlin/Heidelberg, 1980].
The L1210 tumor line originated in 1948 as a lymphocytic leukemia in a female DBA/2 mouse after the skin was treated with 0.2% 20-methylcholanthrene in ethyl ether. The tumor line is maintained by serial passage in female DBA/2 mice.
On day, 0, female CDF1 mice weighing 18-22 g are inoculated with 1×10^5 L1210 leukemia cells harvested from the ascites of DBA/2 mice. The mice are randomized into groups of six each and the test compounds and vehicle control are administered intraperitoneally once daily for nine consecutive days beginning on day 1. A ≥20% decrease in body weight on day 5 is considered an indication of toxicity. The acceptable control mean survival time is 8-11 days.
Results are expressed as percentage of the mean survival time of the vehicle-treated control group according to the formula: [formula] Mice which survive for 30 days are considered cured and are not included in the calculation of the mean survival time.
The NCI criteria for activity is used. A compound is considered to have moderate activity against L1210 leukemia if it has a % T/C≥125%, and it is considered to have good activity against L1210 leukemia if it has a % T/C≥150%.

[2] = system: DLD-2 human colon carcinoma xenograft; assay: DLD-2 Human Colon Carcinoma Xenograft Test; assay type: in vivo, human tumor in athymic (NU/NU) mice; conditions: dose 50 mg/kg, intraperitoneal, once daily for nine days
Experimental: as §1
The DLD-2 tumor line was orignally obtained from a primary colon carcinoma surgically removed from a patient. The line is maintained by serial passage in athymic nude mice.
On day 0, male and female outbred Swiss mice bearing the NU/NU gene and weighing 22-30 g are inoculated with 0.2 mL of a 25% tumor mince. […] Tumor measurements and weights are recorded once a week. […]
The efficacy of the test compounds is determined by the extent of tumor growth inhibition in treated versus vehicle-treated control mice. Initial tumor weights (mg) are calculated from the tumor dimensions (mm) using the formula for the volume of a prolate ellipsoid (L×W^2 /2). Net tumor weights are calculated for each of the treated groups and the vehicle-treated control group by subtracting the initial tumor weight (estimated) from the final tumor weight (actual) on day 19. […] Results are expressed as percent inhibition of control growth according to the formula: [formula] […]

B16 melanoma = assay: B16 Murine Melanoma Test; assay type: in vivo, mouse; conditions: intraperitoneal, once daily for nine days
Experimental: as §1
The B16 tumor line arose spontaneously in 1954 on the skin at the base of the ear of a C57BL mouse. The tumor line is maintained by serial passage in female C57BL mice.
On day 0, female B6C3F1 mice are inoculated intraperitoneally with 0.5 mL of a 10% tumor brei. This brei is prepared by homogenizing fresh B16 tumors, grown subcutaneously in C57BL mice, in cold physiological saline. Mice are randomized in groups of ten each, with 20 animals being in the control group. The test compounds and vehicle control are administered intraperitoneally once daily for nine consecutive days beginning on day 1. A ≥20% decrease in body weight on day 5 is considered an indication of toxicity. The acceptable mean control survival time is 14-22 days. Results are expressed as a percentage of the mean survival time of the vehicle-treated control group according to the formula: [formula] […]

Compound	IC50 [1]	% T/C (mean survival time, percentage of vehicle-treated control) (L1210 leukemia; dose 100 mg/kg)	% Inhibition (tumor growth) [2]	% T/C (mean survival time, percentage of vehicle-treated control) (B16 melanoma; dose 35 mg/kg)	% T/C (mean survival time, percentage of vehicle-treated control) (B16 melanoma; dose 50 mg/kg)	% T/C (mean survival time, percentage of vehicle-treated control) (L1210 leukemia; dose 50 mg/kg)
O=C(O)c1c2c(nc3ccccc13)-c1ccc(-c3ccccc3)cc1CC2 [Example 1, 5,6-Dihydro-3-phenylbenz[c]acridine-7-carboxylic acid]	14.1 µg/mL (≈ 40.1 µM)	178%				
O=C(O)c1c2c(nc3ccc(F)cc13)-c1ccc(-c3ccccc3)cc1CC2 [Example 3, 5,6-Dihydro-9-fluoro-3-phenylbenz[c]acridine-7-carboxylic acid]	0.05 µg/mL (≈ 0.135 µM)	180%	70%	134%		
O=C([O-])c1c2c(nc3ccc(F)cc13)-c1ccc(-c3ccccc3)cc1CC2.[Na+] [Example 12, 5,6-Dihydro-9-fluoro-3-phenylbenz[c]acridine-7-carboxylic acid, sodium salt]	0.06 µg/mL				140%	171%
O=C(O)c1c2c(nc3ccccc13)-c1cc3sc4ccccc4c3cc1CC2 [Example 24]	1.96 µg/mL (≈ 5.14 µM)					
O=C(O)c1c2c(nc3ccc(F)cc13)-c1cc3sc4ccccc4c3cc1CC2 [Example 27, 6,7-Dihydro-3-fluoro[1]-benzothieno[2',3':4,5]benz[1,2-c]acridine-5-carboxylic acid]	1.4 µg/mL (≈ 3.5 µM)	149%				
